Measurements taken from ChEMBL document CHEMBL1201862, “PubChem BioAssay data set” (2004).
Blank lines part the entries; values can stand above or below the compound they belong to. The source made the active and inactive calls.

How the values were obtained:
HEK293 = assay: optical interference in Abeta FP readout, dose response, artefact control for IDE activator project, biochemical, fluorescence polarization (AID 588442); assay type: functional, cell-based; settings: Homo sapiens
Caspase-7 = Caspase-7 (Homo sapiens, UniProt P55210); assay: human caspase-7 inhibitors, dose response, selectivity assay for caspase-6 inhibitor project, biochemical, DEVD-R110 fluorescence, cherry-pick (AID 743295)
Caspase-3 = target: T1, Caspase-3 (Homo sapiens, UniProt P42574); assay: caspase-3 enzyme inhibitors, selectivity check, dose response, selectivity assay for caspase-6 allosteric inhibitor project, biochemical, fluorescence, cherry-picked samples (AID 743291)
T1 sequence (P42574 whole entry): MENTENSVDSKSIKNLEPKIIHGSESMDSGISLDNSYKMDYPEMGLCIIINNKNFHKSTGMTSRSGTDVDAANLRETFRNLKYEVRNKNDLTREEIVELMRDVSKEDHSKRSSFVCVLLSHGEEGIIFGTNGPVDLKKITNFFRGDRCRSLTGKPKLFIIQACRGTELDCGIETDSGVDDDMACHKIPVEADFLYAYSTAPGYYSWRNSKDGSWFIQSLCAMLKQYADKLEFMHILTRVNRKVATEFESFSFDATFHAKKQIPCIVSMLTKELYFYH

[1] = target: Serine/threonine-protein kinase D2 (Homo sapiens, UniProt Q9BZL6); assay type: functional;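 note: measured against PRKD2 as one member of a kinome-wide kinase profiling panel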
[2] = target: Calcium/calmodulin-dependent protein kinase type II subunit gamma (Homo sapiens, UniProt Q13555); assay type: functional
[3] = target: Cell division cycle 7-related protein kinase (Homo sapiens, UniProt O00311); assay type: functional;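 note: value obtained from a kinome-wide kinase panel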
[4] = target: Casein kinase II subunit alpha (Homo sapiens, UniProt P68400); assay type: functional
[5] = target: Casein kinase I isoform gamma-1 (Homo sapiens, UniProt Q9HCP0); assay type: functional;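 note: measured as the CSNK1G1 member of a kinome profiling panel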
[6] = target: Homeodomain-interacting protein kinase 2 (Homo sapiens, UniProt Q9H2X6); assay type: functional;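 note: measured within a kinome-wide kinase profiling panel, HIPK2 being one panel member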
[7] = target: MAP/microtubule affinity-regulating kinase 3 (Homo sapiens, UniProt P27448); assay type: functional;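 note: MARK3 affinity measured as one member of a kinome panel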
[8] = target: Mitogen-activated protein kinase 13 (Homo sapiens, UniProt O15264); assay type: functional
[9] = target: Mitogen-activated protein kinase kinase kinase 20 (Homo sapiens, UniProt Q9NYL2); assay type: functional
[10] = target: Non-receptor tyrosine-protein kinase TYK2 (Homo sapiens, UniProt P29597); assay type: functional
[11] = target: Protein kinase C gamma type (Homo sapiens, UniProt P05129); assay type: functional
[12] = target: Receptor tyrosine-protein kinase erbB-2 (Homo sapiens, UniProt P04626); assay: Navigating the Kinome. Panel member name: ERBB2; assay type: functional
Ephrin type-A receptor 2 = Ephrin type-A receptor 2 (Homo sapiens, UniProt P29317); assay type: functional;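 note: EPHA2 tested as one member of a kinome-wide kinase panel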
Misshapen-like kinase 1 = Misshapen-like kinase 1 (Homo sapiens, UniProt Q8N4C8); assay type: functional;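 note: kinome panel screen with MINK as the panel member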
[13] = target: Calcium/calmodulin-dependent protein kinase type 1 (Homo sapiens, UniProt Q14012); assay type: functional
[14] = target: Homeodomain-interacting protein kinase 4 (Homo sapiens, UniProt Q8NE63); assay type: functional
[15] = target: Cyclin-dependent kinase 1 (Homo sapiens, UniProt P06493); assay type: functional;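 note: Kinome-wide panel profiling, with the target listed as panel member CDC2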
[16] = target: Mitogen-activated protein kinase 12 (Homo sapiens, UniProt P53778); assay type: functional;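 note: measured as one member of a kinome-wide kinase profiling panel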
[17] = target: Serine/threonine-protein kinase MRCK alpha (Homo sapiens, UniProt Q5VT25); assay type: functional
[18] = target: T2, Sentrin-specific protease 7 (Homo sapiens, UniProt Q9BQF6); assay type: functional;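 note: Luminescence-based dose-response confirmation of ultra-high-throughput screening hits, measuring inhibition of SENP7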
T2 sequence (Q9BQF6 whole entry): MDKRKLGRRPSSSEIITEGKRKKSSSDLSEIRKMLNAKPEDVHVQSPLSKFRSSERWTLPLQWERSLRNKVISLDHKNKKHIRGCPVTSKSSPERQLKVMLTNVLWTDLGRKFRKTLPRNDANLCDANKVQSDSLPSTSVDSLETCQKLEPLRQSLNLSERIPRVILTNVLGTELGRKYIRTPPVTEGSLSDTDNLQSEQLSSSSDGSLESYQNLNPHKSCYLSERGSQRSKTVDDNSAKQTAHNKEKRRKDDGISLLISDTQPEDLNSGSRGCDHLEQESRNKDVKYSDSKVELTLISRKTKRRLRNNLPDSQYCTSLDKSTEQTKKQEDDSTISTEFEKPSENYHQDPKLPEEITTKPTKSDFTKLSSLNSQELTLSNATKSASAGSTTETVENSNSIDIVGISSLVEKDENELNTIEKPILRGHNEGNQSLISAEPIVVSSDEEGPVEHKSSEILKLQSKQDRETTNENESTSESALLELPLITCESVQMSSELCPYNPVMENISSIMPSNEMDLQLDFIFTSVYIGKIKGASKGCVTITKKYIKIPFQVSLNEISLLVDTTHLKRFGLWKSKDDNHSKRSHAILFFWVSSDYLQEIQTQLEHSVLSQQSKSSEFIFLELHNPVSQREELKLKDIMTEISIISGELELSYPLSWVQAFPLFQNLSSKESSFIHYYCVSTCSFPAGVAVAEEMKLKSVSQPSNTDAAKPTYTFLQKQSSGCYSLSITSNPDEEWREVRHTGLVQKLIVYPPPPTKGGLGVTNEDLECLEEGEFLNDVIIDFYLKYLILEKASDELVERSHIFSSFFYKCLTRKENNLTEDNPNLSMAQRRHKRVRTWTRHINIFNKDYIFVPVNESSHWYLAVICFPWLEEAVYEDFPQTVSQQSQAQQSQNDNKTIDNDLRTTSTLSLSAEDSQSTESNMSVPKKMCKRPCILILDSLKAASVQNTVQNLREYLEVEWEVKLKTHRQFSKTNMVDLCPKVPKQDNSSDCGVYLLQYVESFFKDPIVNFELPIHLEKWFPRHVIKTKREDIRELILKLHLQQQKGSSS

Casein kinase I isoform gamma-1, sequence (Q9HCP0 whole entry, canonical isoform): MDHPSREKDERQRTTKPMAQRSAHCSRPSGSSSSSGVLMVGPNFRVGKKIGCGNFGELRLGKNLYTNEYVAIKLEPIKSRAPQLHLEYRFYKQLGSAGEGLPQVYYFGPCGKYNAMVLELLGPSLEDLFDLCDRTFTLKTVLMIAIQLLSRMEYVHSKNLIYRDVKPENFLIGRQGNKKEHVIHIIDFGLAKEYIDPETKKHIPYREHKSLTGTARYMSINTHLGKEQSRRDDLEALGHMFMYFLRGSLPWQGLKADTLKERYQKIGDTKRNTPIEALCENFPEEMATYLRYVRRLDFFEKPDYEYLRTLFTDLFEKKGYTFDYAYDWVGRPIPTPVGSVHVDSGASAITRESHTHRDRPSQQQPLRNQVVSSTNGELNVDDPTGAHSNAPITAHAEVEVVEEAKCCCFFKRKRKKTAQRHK
Mitogen-activated protein kinase 12, sequence (P53778 whole entry): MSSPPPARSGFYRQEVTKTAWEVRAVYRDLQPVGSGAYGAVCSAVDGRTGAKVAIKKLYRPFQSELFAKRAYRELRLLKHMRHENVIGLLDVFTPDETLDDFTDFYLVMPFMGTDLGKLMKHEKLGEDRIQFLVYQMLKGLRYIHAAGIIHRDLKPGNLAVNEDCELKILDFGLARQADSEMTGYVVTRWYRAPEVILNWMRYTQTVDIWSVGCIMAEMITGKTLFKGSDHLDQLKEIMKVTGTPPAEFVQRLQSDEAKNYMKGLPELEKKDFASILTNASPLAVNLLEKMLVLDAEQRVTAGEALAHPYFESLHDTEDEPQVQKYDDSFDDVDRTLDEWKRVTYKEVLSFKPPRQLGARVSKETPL
MAP/microtubule affinity-regulating kinase 3, sequence (P27448 whole entry): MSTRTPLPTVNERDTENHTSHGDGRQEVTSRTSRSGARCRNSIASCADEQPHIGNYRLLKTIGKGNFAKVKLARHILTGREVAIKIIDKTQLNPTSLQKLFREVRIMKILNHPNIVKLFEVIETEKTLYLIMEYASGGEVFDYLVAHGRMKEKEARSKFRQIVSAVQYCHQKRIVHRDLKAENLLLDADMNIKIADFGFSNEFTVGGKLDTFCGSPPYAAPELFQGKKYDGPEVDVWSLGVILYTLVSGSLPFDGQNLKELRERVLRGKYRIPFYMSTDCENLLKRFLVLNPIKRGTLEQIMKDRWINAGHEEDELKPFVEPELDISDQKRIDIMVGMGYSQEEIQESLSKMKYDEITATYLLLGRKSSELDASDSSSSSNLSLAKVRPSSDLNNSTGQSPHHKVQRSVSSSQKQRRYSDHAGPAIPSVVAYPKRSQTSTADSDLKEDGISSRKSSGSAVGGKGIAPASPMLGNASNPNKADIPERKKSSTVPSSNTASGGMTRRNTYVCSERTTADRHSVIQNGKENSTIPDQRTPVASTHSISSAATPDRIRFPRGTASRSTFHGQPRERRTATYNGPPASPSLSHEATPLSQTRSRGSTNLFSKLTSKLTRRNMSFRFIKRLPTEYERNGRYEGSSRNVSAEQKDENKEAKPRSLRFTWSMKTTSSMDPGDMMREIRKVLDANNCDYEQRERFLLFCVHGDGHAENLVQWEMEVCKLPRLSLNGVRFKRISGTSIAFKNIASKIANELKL
Cell division cycle 7-related protein kinase, sequence (O00311 whole entry): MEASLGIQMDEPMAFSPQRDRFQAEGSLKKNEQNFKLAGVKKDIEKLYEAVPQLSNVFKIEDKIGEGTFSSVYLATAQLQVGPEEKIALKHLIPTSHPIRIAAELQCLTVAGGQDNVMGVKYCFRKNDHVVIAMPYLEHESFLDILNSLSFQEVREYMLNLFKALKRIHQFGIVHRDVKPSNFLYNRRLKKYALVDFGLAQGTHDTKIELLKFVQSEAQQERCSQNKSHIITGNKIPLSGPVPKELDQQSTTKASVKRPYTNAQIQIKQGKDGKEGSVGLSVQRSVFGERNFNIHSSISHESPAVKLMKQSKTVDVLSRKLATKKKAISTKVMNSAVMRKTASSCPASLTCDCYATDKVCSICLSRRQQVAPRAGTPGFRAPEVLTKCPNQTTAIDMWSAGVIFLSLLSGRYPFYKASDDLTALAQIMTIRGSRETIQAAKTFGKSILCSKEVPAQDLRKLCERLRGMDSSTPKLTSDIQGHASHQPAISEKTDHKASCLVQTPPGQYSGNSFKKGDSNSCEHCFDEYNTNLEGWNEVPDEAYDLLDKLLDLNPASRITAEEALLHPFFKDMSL
Cyclin-dependent kinase 1, sequence (P06493 whole entry): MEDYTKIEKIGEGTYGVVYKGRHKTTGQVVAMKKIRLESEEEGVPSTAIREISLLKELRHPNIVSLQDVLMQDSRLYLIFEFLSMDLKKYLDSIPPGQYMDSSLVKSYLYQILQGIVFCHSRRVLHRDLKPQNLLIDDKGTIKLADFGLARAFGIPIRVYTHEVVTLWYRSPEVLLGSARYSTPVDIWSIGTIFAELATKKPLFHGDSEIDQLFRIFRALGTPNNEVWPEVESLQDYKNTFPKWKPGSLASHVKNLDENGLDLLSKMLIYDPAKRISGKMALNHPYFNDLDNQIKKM
Serine/threonine-protein kinase MRCK alpha, sequence (Q5VT25 whole entry): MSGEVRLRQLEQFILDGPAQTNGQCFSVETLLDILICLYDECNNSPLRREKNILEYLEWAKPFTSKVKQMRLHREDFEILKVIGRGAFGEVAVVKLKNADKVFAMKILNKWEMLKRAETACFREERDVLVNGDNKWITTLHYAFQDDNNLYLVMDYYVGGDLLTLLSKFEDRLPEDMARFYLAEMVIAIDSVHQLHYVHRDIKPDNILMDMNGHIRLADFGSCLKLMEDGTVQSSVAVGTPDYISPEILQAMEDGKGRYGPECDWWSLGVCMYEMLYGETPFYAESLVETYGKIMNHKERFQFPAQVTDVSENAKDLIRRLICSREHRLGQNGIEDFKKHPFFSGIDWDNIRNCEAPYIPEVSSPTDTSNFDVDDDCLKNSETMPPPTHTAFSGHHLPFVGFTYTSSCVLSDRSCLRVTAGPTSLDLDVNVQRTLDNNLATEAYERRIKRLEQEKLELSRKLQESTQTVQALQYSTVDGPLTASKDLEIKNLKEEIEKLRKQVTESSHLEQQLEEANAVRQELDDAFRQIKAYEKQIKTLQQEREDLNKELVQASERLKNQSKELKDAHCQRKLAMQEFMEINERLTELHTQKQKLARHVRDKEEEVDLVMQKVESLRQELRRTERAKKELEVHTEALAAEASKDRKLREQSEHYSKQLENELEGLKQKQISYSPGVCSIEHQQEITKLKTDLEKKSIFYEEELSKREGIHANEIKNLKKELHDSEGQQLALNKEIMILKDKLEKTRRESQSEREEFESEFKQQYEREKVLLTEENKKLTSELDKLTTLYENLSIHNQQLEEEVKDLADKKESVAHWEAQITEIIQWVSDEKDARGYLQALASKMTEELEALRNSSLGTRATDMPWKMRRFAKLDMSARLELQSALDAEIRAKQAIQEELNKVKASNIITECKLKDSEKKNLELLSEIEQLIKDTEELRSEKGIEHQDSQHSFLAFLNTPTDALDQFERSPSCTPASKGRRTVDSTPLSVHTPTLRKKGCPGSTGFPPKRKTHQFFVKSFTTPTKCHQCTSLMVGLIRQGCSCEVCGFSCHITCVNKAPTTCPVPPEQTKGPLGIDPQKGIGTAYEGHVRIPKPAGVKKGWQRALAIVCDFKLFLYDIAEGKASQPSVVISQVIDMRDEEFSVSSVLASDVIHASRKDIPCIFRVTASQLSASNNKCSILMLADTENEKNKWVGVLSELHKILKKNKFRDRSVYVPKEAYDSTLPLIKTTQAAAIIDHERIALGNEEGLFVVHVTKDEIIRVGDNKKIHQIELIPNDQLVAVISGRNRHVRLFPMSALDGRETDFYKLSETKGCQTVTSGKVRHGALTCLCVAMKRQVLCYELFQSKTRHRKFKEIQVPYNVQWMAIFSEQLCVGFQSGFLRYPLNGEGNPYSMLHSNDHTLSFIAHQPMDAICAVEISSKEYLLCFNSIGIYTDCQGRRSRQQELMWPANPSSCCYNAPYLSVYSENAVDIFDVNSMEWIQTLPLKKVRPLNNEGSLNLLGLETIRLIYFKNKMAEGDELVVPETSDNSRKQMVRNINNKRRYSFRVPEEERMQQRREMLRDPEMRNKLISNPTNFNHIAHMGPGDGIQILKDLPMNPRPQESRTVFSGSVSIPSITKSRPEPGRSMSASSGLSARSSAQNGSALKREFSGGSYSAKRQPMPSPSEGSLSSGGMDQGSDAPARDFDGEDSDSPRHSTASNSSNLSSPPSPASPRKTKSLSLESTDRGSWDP

Compound: CCN(CC)CCCC(C)n1c2nc(=O)[nH]c(=O)c-2nc2cc(Cl)ccc21 (configuration not stated)
EC50 (HEK293): > 54700 nM (inactive)
AC50 (Caspase-7): 899 nM (active)
AC50 (Caspase-3): 561 nM (active)

Ki [1]: 20 nM (active)
pKi [1]: 7.7
Ki [2]: 31.6 nM (active)
pKi [2]: 7.5
Ki [3]: 0.158 nM (active)
pKi [3]: 9.8
Ki [4]: 158 nM (active)
pKi [4]: 6.8
Ki [5]: 316 nM (active)
pKi [5]: 6.5
Ki [6]: 31.6 nM (active)
pKi [6]: 7.5
Ki [7]: 50.1 nM (active)
pKi [7]: 7.3
Ki [8]: 126 nM (active)
pKi [8]: 6.9
Ki [9]: > 7940 nM (inactive)
Ki [10]: 1000 nM (active)
Ki [11]: 200 nM (active)
pKi [11]: 6.7
Ki [12]: > 1580 nM (inactive)
Ki (Ephrin type-A receptor 2): > 3160 nM (inactive)
Ki (Misshapen-like kinase 1): 3.16 nM (active)
pKi (Misshapen-like kinase 1): 8.5
Ki [13]: > 794 nM (inactive)
Ki [14]: 398 nM (active)
pKi [14]: 6.4
Ki [15]: 39.8 nM (active)
pKi [15]: 7.4
Ki [16]: 158 nM (active)
pKi [16]: 6.8
Ki [17]: 31.6 nM (active)
pKi [17]: 7.5
Compound: OC1CCC(Nc2nc(Cl)cc(-c3c[nH]c4ncccc34)n2)CC1 (configuration not stated)

IC50 [18]: 6290 nM (active)
Compound: O=C(COC(=O)c1ccc([N+](=O)[O-])s1)Nc1ccc(F)cc1
